Reference: patent EP3865489A1, “SPIROCYCLIC INHIBITORS OF HEPATITIS B VIRUS” (priority 2020, dated 2021)
pEC50: −log10 of the molar value.

test system: HBV; experiment: Anti-HBV activity in vitro: extracellular HBV DNA quantified by direct qPCR in HepAD38 cells; type: cell-based; conditions: Hepatitis B virus, doxycycline-free medium, 96 hours at 37°C, reported as EC50 threshold value, read-out: HBV inh EC50
Text: HepAD38 cell line (Ladner et al., Antimicrob Agents Chemother, 1997, 41, 1715-20) was used for HBV inhibition assays. HepAD38 is a subclone, derived from Hepatoblastoma cell line HepG2 (ATCC® Number: HB-8065™), that expresses HBV genome under the transcriptional control of a tetracycline-responsive promoter in a TET-OFF system: addition of tetracycline (TET) or doxycycline suppresses HBV replication, while its removal switches on the process allowing HBV viral particles release in the cell supernatant. HepAD38 cell line is maintained in DMEM/F12, supplemented with 10% of fetal bovine serum, 1% of glutamine, 1% of penicillin/streptomycin, 0.4 mg/ml G418 and 0,3 ug/ml tetracycline. For the HBV inhibition assay, doxycycline-free medium is used in order to allow virion production.
HBV inhibition activity in vitro was performed in 96 multiwell plates. During the initial (primary) screening, compounds were first tested in triplicates at concentrations of 0.02 µM, 0.1µM, 0.5µM and 1µM. For selected compounds, an 8-point dose-response curve was obtained using 1:2 serial dilutions (starting from 0.01µM, 0.1µM, 0.4µM or 5 µM, depending on the degree of inhibition observed during the primary screening). From the dose-response curves, half maximal effective concentration (EC50) could be calculated (see also below).
In more detail, compounds - typically dissolved in DMSO stock solutions - were diluted to 2x the final desired concentration in 100 µl of the above medium (without doxycycline) and plated in three replicates in the 96-well plates. […]
Plates were then incubated 96 hours at 37°C and then subjected to cell viability assays and extracellular HBV quantification, in order to evaluate both the cytotoxic potential and the antiviral activity of compounds. Cytotoxicity was assessed by a commercial fluorescence assay that measures the metabolic activity of cells, directly related to cell viability (Cell Titer Blue, Promega). Anti-HBV activity was evaluated by quantification of extracellular HBV DNA with direct qPCR. […]

| SMILES | pEC50 |
| --- | --- |
| C[C@H](NC(=O)C(=O)N1CCC2(COc3c(cn(C)c3C(=O)Nc3ccc(F)c(F)c3)S(=O)(=O)N2)C1)C(F)(F)F (stereo in doubt) [Example E1, N-(3,4-difluorophenyl)-7'-methyl-1-(2-oxo-2-(((S)-1,1,1-trifluoropropan-2-yl)amino)acetyl)-2'H,4'H,7'H-spiro[pyrrolidine-3,3'-pyrrolo[3,4-b][1,4,5]oxathiazepine]-6'-carboxamide 1',1'-dioxide] | > 6.30 |
| C[C@H](NC(=O)C(=O)N1CCC2(COc3c(c(Cl)n(C)c3C(=O)Nc3ccc(F)c(F)c3)S(=O)(=O)N2)C1)C(F)(F)F (stereo in doubt) [Example E3, 8'-chloro-N-(3,4-difluorophenyl)-7'-methyl-1-(2-oxo-2-(((S)-1,1,1-trifluoropropan-2-yl)amino)acetyl)-2'H,4'H,7'H-spiro[pyrrolidine-3,3'-pyrrolo[3,4-b][1,4,5]oxathiazepine]-6'-carboxamide 1',1'-dioxide] | > 6.30 |
| Cc1nnc(C(=O)N2CCC3(COc4c(cn(C)c4C(=O)Nc4ccc(F)c(F)c4)S(=O)(=O)N3)C2)o1 (stereo not drawn) [Example E2, N-(3,4-difluorophenyl)-7'-methyl-1-(5-methyl-1,3,4-oxadiazole-2-carbonyl)-2'H,4'H,7'H-spiro[pyrrolidine-3,3'-pyrrolo[3,4-b][1,4,5]oxathiazepine]-6'-carboxamide 1',1'-dioxide] | > 6.30 |
